Test results: patent US10980889B1 (Revolution Medicines, Inc., priority 2018, dated 2021)
Like-named read-outs stand apart in the source and are kept apart here.

Legend:
Details in all cases: two to four hours at 37° C.; for IC50: Homo sapiens, 4 h
P-P70S6K (T389) = assay: Cell based AlphaLISA assay, inhibition of P-P70S6K (T389) in MDA-MB-468 cells (mTORC1 substrate)
In short: (§1)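 In MDA-MB-468 cells, phosphorylation of 4EBP1 (Thr37/46), P70S6K (Thr389) and AKT (Ser473) was measured after incubation with inhibitor by AlphaLISA SureFire Ultra on cell lysates, in duplicate. IC50 values came from control-normalized concentration-response regression.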

P-4E-BP1 (T37/46) = assay: Cell based AlphaLISA assay, inhibition of P-4E-BP1 (T37/46) in MDA-MB-468 cells (mTORC1 substrate)
In short: as §1

P-Akt (S473) = assay: Cell based AlphaLISA assay, inhibition of P-Akt (S473) in MDA-MB-468 cells (mTORC2 substrate)
In short: as §1

[1] = AlphaLisa, read-out: pIC50 for Inhibition of mTORC1 and mTORC2 Substrate Phosphorylation p-P70S6K-(T389) (converted)
[2] = AlphaLisa, read-out: pIC50 for Inhibition of mTORC1 and mTORC2 Substrate Phosphorylation P-4E-BP1-(T37/46) (converted)
[3] = AlphaLisa, read-out: pIC50 for Inhibition of mTORC1 and mTORC2 Substrate Phosphorylation p-AKT1/2/3-(S473) (converted)

Row | Structure (SMILES) | pIC50 for Inhibition of mTORC1 and mTORC2 Substrate Phosphorylation p-P70S6K-(T389) (P-P70S6K (T389); AlphaLisa) | pIC50 for Inhibition of mTORC1 and mTORC2 Substrate Phosphorylation P-4E-BP1-(T37/46) (P-4E-BP1 (T37/46); AlphaLisa) | pIC50 for Inhibition of mTORC1 and mTORC2 Substrate Phosphorylation p-AKT1/2/3-(S473) (P-Akt (S473); AlphaLisa) | IC50 (P-P70S6K (T389); [1]) | IC50 (P-4E-BP1 (T37/46); [2]) | IC50 (P-Akt (S473); [3]) | further results
1 | CO[C@H]1C[C@@H]2CC[C@@H](C)[C@@](O)(O2)C(=O)C(=O)N2CCCC[C@H]2C(=O)O[C@H]([C@H](C)C[C@@H]2CC[C@@H](OC(=S)NCCOCCOCCOCCOCCOCCOCCOCCOCCC(=O)N3CCc4cc(Cn5nc(-c6ccc7oc(N)nc7c6)c6c(N)ncnc65)ccc4C3)[C@H](OC)C2)C[C@@H](OC)[C@H](C)/C=C(\C)[C@@H](O)[C@@H](OC)C(=O)[C@H](C)C[C@H](C)/C=C/C=C/C=C/1C [Example 78] | +++ (≥9) | +++ (≥8.5) | +++ (≥8.5) | – | – | – | –
2 | CO[C@H]1C[C@@H]2CC[C@@H](C)[C@@](O)(O2)C(=O)C(=O)N2CCCC[C@H]2C(=O)O[C@H]([C@H](C)C[C@@H]2CC[C@@H](OC(=O)NCc3cnc(N4CCN(c5ncc(C(=O)N6CCN(c7ncc(C(=O)N8CCc9cc(Cn%10nc(-c%11cnc%12[nH]ccc%12c%11)c%11c(N)ncnc%11%10)ccc9C8)cn7)CC6)cn5)CC4)nc3)[C@H](OC)C2)CC(=O)[C@H](C)/C=C(\C)[C@@H](O)[C@@H](OC)C(=O)[C@H](C)C[C@H](C)/C=C/C=C/C=C/1C [Example 140] | – | – | – | 10 to 1000 nM | 31.6 to 1000 nM | > 1000 nM | –
3 | CO[C@H]1C[C@@H]2CC[C@@H](C)[C@@](O)(O2)C(=O)C(=O)N2CCCC[C@H]2C(=O)O[C@H]([C@H](C)C[C@@H]2CC[C@@H](OC(=S)NCCOCCOCCOCCOCCOCCOCCOCCOCCC(=O)N3CCc4cc(Cn5nc(-c6ccc7oc(N)nc7c6)c6c(N)ncnc65)ccc4C3)[C@H](OC)C2)C[C@@H](O)[C@H](C)/C=C(\C)[C@@H](O)[C@@H](OC)C(=O)[C@H](C)C[C@H](C)/C=C/C=C/C=C/1C [Example 33] | – | – | – | < 1 nM | < 3.16 nM | > 1000 nM | –
4 | CO[C@H]1C[C@@H]2CC[C@@H](C)[C@@](O)(O2)C(=O)C(=O)N2CCCC[C@H]2C(=O)O[C@H]([C@H](C)C[C@@H]2CC[C@@H](OC(=O)NCc3cnc(N4CCN(c5ncc(C(=O)N(C)CCOCCOCCOCCOCCC(=O)N6CCc7cc(Cn8nc(-c9ccc%10oc(N)nc%10c9)c9c(N)ncnc98)ccc7C6)c(N)n5)CC4)nc3)[C@H](OC)C2)C[C@@H](OC)[C@H](C)/C=C(\C)[C@@H](O)[C@@H](OC)C(=O)[C@H](C)C[C@H](C)/C=C/C=C/C=C/1C [Example 107] | +++ (≥9) | − (<6) | − (<6) | – | – | – | –
5 | CO[C@H]1C[C@@H]2CC[C@@H](C)[C@@](O)(O2)C(=O)C(=O)N2CCCC[C@H]2C(=O)O[C@H]([C@H](C)C[C@@H]2CC[C@@H](OC(=O)NCc3cnc(N4CCN(CCOCCN5CCN(c6ncc(C(=O)N7CCc8cc(Cn9nc(-c%10ccc%11[nH]ccc%11c%10)c%10c(N)ncnc%109)ccc8C7)cn6)CC5)CC4)nc3)[C@H](OC)C2)CC(=O)[C@H](C)/C=C(\C)[C@@H](O)[C@@H](OC)C(=O)[C@H](C)C[C@H](C)/C=C/C=C/C=C/1C [Example 130] | – | – | – | < 1 nM | < 3.16 nM | > 1000 nM | –
6 | CO[C@H]1C[C@@H]2CC[C@@H](C)[C@@](O)(O2)C(=O)C(=O)N2CCCC[C@H]2C(=O)O[C@H]([C@H](C)C[C@@H]2CC[C@@H](OC(=O)NCCOCCOCCOCCOCCOCCOCCOCCOCCC(=O)NCc3ccc(Cn4nc(-c5ccc6oc(N)nc6c5)c5c(N)ncnc54)cc3)[C@H](OC)C2)C[C@H](N=[N+]=[N-])[C@H](C)/C=C(\C)[C@@H](O)[C@@H](OC)C(=O)[C@H](C)C[C@H](C)/C=C/C=C/C=C/1C [Example 82] | +++ (≥9) | +++ (≥8.5) | − (<6) | – | – | – | –
7 | CO[C@H]1C[C@@H]2CC[C@@H](C)[C@@](O)(O2)C(=O)C(=O)N2CCCC[C@H]2C(=O)O[C@H]([C@H](C)C[C@@H]2CC[C@@H](OC(=O)NCc3cnc(N4CCN(c5ncc(C(=O)NCCOCCOCCOCCOCCC(=O)N6CCc7cc(Cn8nc(-c9cnc%10[nH]ccc%10c9)c9c(N)ncnc98)ccc7C6)c(N)n5)CC4)nc3)[C@H](OC)C2)CC(=O)[C@H](C)/C=C(\C)[C@@H](O)[C@@H](OC)C(=O)[C@H](C)C[C@H](C)/C=C/C=C/C=C/1C [Example 108] | ++ (9 > pIC50 ≥ 8) | − (<6) | − (<6) | – | – | – | –
8 | CC(C)n1nc(-c2ccc3oc(N)nc3c2)c2c(N)ncnc21 [MLN-128, reference compound] | – | – | – | – | – | – | IC50 (P-P70S6K (T389); AlphaLisa SureFire Ultra, read-out: IC50 for Inhibition of mTORC1 and mTORC2 Substrate Phosphorylation (nM) p-P7056K-(T389)): 1.4 nM; IC50 (P-4E-BP1 (T37/46); AlphaLisa SureFire Ultra, read-out: IC50 for Inhibition of mTORC1 and mTORC2 Substrate Phosphorylation (nM) p-4E-BP1-(T37/46)): 16 nM; IC50 (P-Akt (S473); AlphaLisa SureFire Ultra, read-out: IC50 for Inhibition of mTORC1 and mTORC2 Substrate Phosphorylation (nM) p-AKT1/2/3-(5473)): 3.7 nM
9 | CO[C@H]1C[C@@H]2CC[C@@H](C)[C@@](O)(O2)C(=O)C(=O)N2CCCC[C@H]2C(=O)O[C@H]([C@H](C)C[C@@H]2CC[C@@H](OC(=O)NCCOCCOCCOCCOCCOCCOCCOCCOCCC(=O)NCc3ccc(Cn4nc(-c5ccc6oc(N)nc6c5)c5c(N)ncnc54)cc3)[C@H](OC)C2)C[C@@H](OC)[C@H](C)/C=C(\C)[C@@H](O)[C@@H](OC)C(=O)[C@H](C)C[C@H](C)/C=C/C=C/C=C/1C [Example 37] | – | – | – | < 1 nM | < 3.16 nM | > 1000 nM | –
10 | CO[C@H]1C[C@@H]2CC[C@@H](C)[C@@](O)(O2)C(=O)C(=O)N2CCCC[C@H]2C(=O)O[C@H]([C@H](C)C[C@@H]2CC[C@@H](OC(=O)NCc3cnc(N4CCN(C(=O)CN(C)CC(=O)NCCOCCOCCC(=O)N5CCc6cc(Cn7nc(-c8ccc9oc(N)nc9c8)c8c(N)ncnc87)ccc6C5)CC4)nc3)[C@H](OC)C2)C[C@@H](OC)[C@H](C)/C=C(\C)[C@@H](O)[C@@H](OC)C(=O)[C@H](C)C[C@H](C)/C=C/C=C/C=C/1C [Example 103] | +++ (≥9) | − (<6) | − (<6) | – | – | – | –
11 | CO[C@H]1C[C@@H]2CC[C@@H](C)[C@@](O)(O2)C(=O)C(=O)N2CCCC[C@H]2C(=O)O[C@H]([C@H](C)C[C@@H]2CC[C@@H](OC(=O)NCCOCCOCCOCCOCCOCCOCCOCCOCCC(=O)NCc3ccc(Cn4nc(-c5ccc6oc(N)nc6c5)c5c(N)ncnc54)cc3)[C@H](OC)C2)C[C@@H](O)[C@H](C)/C=C(\C)[C@@H](O)[C@@H](OC)C(=O)[C@H](C)C[C@H](C)/C=C/C=C/C=C/1C [Example 36] | – | – | – | < 1 nM | < 3.16 nM | > 1000 nM | –
12 | CO[C@H]1C[C@@H]2CC[C@@H](C)[C@@](O)(O2)C(=O)C(=O)N2CCCC[C@H]2C(=O)O[C@H]([C@H](C)C[C@@H]2CC[C@@H](OC(=O)NCc3cnc(N4CCN(c5ncc(C(=O)NCCOCCOCCOCCOCCC(=O)N6CCc7cc(Cn8nc(-c9ccc%10oc(N)nc%10c9)c9c(N)ncnc98)ccc7C6)c(N)n5)CC4)nc3)[C@H](OC)C2)C[C@@H](OC)[C@H](C)/C=C(\C)[C@@H](O)[C@@H](OC)C(=O)[C@H](C)C[C@H](C)/C=C/C=C/C=C/1C [Example 94] | – | – | – | < 1 nM | < 3.16 nM | < 3.16 nM | –
13 | CO[C@H]1C[C@@H]2CC[C@@H](C)[C@@](O)(O2)C(=O)C(=O)N2CCCC[C@H]2C(=O)O[C@H]([C@H](C)C[C@@H]2CC[C@@H](O)[C@H](OC)C2)CC(=O)[C@H](C)/C=C(\C)[C@@H](OC(=O)NCc2cnc(N3CCN(C(=O)CCOCCN4CCN(c5ncc(C(=O)N6CCc7cc(Cn8nc(-c9ccc%10oc(N)nc%10c9)c9c(N)ncnc98)ccc7C6)cn5)CC4)CC3)nc2)[C@@H](OC)C(=O)[C@H](C)C[C@H](C)/C=C/C=C/C=C/1C [Example 136] | – | – | – | < 1 nM | 3.16 to 31.6 nM | 3.16 to 31.6 nM | –
14 | CO[C@H]1C[C@@H]2CC[C@@H](C)[C@@](O)(O2)C(=O)C(=O)N2CCCC[C@H]2C(=O)O[C@H]([C@H](C)C[C@@H]2CC[C@@H](OC(=O)NCc3cnc(N4CCN(C(=O)CCOCCN5CCN(c6ncc(C(=O)N7CCc8cc(Cn9nc(-c%10ccc%11oc(N)nc%11c%10)c%10c(N)ncnc%109)ccc8C7)cn6)CC5)CC4)nc3)[C@H](OC)C2)CC[C@H](C)/C=C(\C)[C@@H](O)[C@@H](OC)C(=O)[C@H](C)C[C@H](C)/C=C/C=C/C=C/1C [Example 118] | – | – | – | < 1 nM | < 3.16 nM | 3.16 to 31.6 nM | –
